# Test results from PubChem BioAssay (NCI).
#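 GI50: concentration for 50% inhibition of growth. TGI marks complete inhibition of growth.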
# How the values were obtained:
# Assay in all cases: NCI-60 cell line screen, 384-well format
# [1] = tested on: M14 melanoma
# [2] = tested on: ACHN renal
# [3] = tested on: HOP-92 NSCLC
# [4] = tested on: T-47D breast
# [5] = tested on: OVCAR-5 ovarian
# [6] = tested on: SF-295 CNS
# [7] = tested on: RXF 393 renal
# [8] = tested on: SN12C renal
# [9] = tested on: MCF7 breast
# [10] = tested on: OVCAR-8 ovarian
# [11] = tested on: NCI/ADR-RES ovarian
# [12] = tested on: SW-620 colon
# [13] = tested on: UACC-62 melanoma
# [14] = tested on: IGROV1 ovarian
# [15] = tested on: MOLT-4 leukemia
# [16] = tested on: HOP-62 NSCLC
# [17] = tested on: SF-268 CNS
# [18] = tested on: SK-MEL-5 melanoma
# [19] = tested on: OVCAR-4 ovarian
# [20] = tested on: OVCAR-3 ovarian
# [21] = tested on: RPMI-8226 leukemia
# [22] = tested on: MDA-MB-468 breast
# [23] = tested on: HCC-2998 colon
# [24] = tested on: NCI-H322M lung
# [25] = tested on: UO-31 renal
# [26] = tested on: SF-539 CNS
# [27] = tested on: NCI-H226 lung
# [28] = tested on: BT-549 breast
# [29] = tested on: COLO 205 colon
# [30] = tested on: A549 NSCLC
# [31] = tested on: NCI-H522 lung
# [32] = tested on: K-562 leukemia
# [33] = tested on: TK-10 renal
# [34] = tested on: HS 578T breast
# [35] = tested on: SNB-19 CNS
# [36] = tested on: KM12 colon
# [37] = tested on: UACC-257 melanoma
# [38] = tested on: HT29 colon
# [39] = tested on: NCI-H460 NSCLC
# [40] = tested on: PC-3 prostate
# [41] = tested on: U251 glioblastoma
# [42] = tested on: SK-MEL-28 melanoma
# [43] = tested on: EKVX NSCLC
# [44] = tested on: CAKI-1 renal
# [45] = tested on: CCRF-CEM leukemia
# [46] = tested on: DU-145 prostate
# [47] = tested on: SK-OV-3 ovarian
# [48] = tested on: HL-60(TB) leukemia
# [49] = tested on: 786-0 renal
# [50] = tested on: NCI-H23 lung
# [51] = tested on: LOX IMVI melanoma
# [52] = tested on: HCT-15 colon
# [53] = tested on: SNB-75 CNS
# [54] = tested on: HCT-116 colon
# [55] = tested on: A498 renal
# [56] = tested on: MALME-3M melanoma
# [57] = tested on: MDA-MB-231 breast
# [58] = tested on: MDA-MB-435 melanoma
compound,measurement,setting,value
CN[C@@H](C)C(=O)N[C@H]1CN(C(=O)CC(C)C)CC[C@H]2CC[C@@H](C(=O)NC(c3ccccc3)c3ccccc3)N2C1=O,GI50,[1],> 100 µM
same,TGI,[1],> 100 µM
same,GI50,[2],> 100 µM
same,TGI,[2],> 100 µM
same,GI50,[3],13.8 µM
same,TGI,[3],50.7 µM
same,GI50,[4],> 100 µM
same,TGI,[4],> 100 µM
same,GI50,[5],> 100 µM
same,TGI,[5],> 100 µM
same,GI50,[6],> 100 µM
same,TGI,[6],> 100 µM
same,GI50,[7],0.823 µM
same,TGI,[7],20 µM
same,GI50,[8],> 100 µM
same,TGI,[8],> 100 µM
same,GI50,[9],83.8 µM
same,TGI,[9],> 100 µM
same,GI50,[10],68.8 µM
same,TGI,[10],> 100 µM
same,GI50,[11],> 100 µM
same,TGI,[11],> 100 µM
same,GI50,[12],> 100 µM
same,TGI,[12],> 100 µM
same,GI50,[13],> 100 µM
same,TGI,[13],> 100 µM
same,GI50,[14],> 100 µM
same,TGI,[14],> 100 µM
same,GI50,[15],35.1 µM
same,TGI,[15],> 100 µM
same,GI50,[16],4.4 µM
same,TGI,[16],> 100 µM
same,GI50,[17],> 100 µM
same,TGI,[17],> 100 µM
same,GI50,[18],3.63 µM
same,TGI,[18],21.8 µM
same,GI50,[19],0.167 µM
same,TGI,[19],1.05 µM
same,GI50,[20],> 100 µM
same,TGI,[20],> 100 µM
same,GI50,[21],24.4 µM
same,TGI,[21],> 100 µM
same,GI50,[22],2.78 µM
same,TGI,[22],72.1 µM
same,GI50,[23],12.5 µM
same,TGI,[23],> 100 µM
same,GI50,[24],> 100 µM
same,TGI,[24],> 100 µM
same,GI50,[25],> 100 µM
same,TGI,[25],> 100 µM
same,GI50,[26],> 100 µM
same,TGI,[26],> 100 µM
same,GI50,[27],> 100 µM
same,TGI,[27],> 100 µM
same,GI50,[28],21.8 µM
same,TGI,[28],> 100 µM
same,GI50,[29],> 100 µM
same,TGI,[29],> 100 µM
same,GI50,[30],> 100 µM
same,TGI,[30],> 100 µM
same,GI50,[31],5.58 µM
same,TGI,[31],> 100 µM
same,GI50,[32],56.6 µM
same,TGI,[32],> 100 µM
same,GI50,[33],> 100 µM
same,TGI,[33],> 100 µM
same,GI50,[34],16.4 µM
same,TGI,[34],> 100 µM
same,GI50,[35],> 100 µM
same,TGI,[35],> 100 µM
same,GI50,[36],> 100 µM
same,TGI,[36],> 100 µM
same,GI50,[37],24.7 µM
same,TGI,[37],55 µM
same,GI50,[38],39.8 µM
same,TGI,[38],> 100 µM
same,GI50,[39],> 100 µM
same,TGI,[39],> 100 µM
same,GI50,[40],> 100 µM
same,TGI,[40],> 100 µM
same,GI50,[41],> 100 µM
same,TGI,[41],> 100 µM
same,GI50,[42],> 100 µM
same,TGI,[42],> 100 µM
same,GI50,[43],> 100 µM
same,TGI,[43],> 100 µM
same,GI50,[44],> 100 µM
same,TGI,[44],> 100 µM
same,GI50,[45],15.8 µM
same,TGI,[45],> 100 µM
same,GI50,[46],> 100 µM
same,TGI,[46],> 100 µM
same,GI50,[47],0.357 µM
same,TGI,[47],9.16 µM
same,GI50,[48],1.56 µM
same,TGI,[48],12.1 µM
same,GI50,[49],> 100 µM
same,TGI,[49],> 100 µM
same,GI50,[50],49 µM
same,TGI,[50],> 100 µM
same,GI50,[51],> 100 µM
same,TGI,[51],> 100 µM
same,GI50,[52],> 100 µM
same,TGI,[52],> 100 µM
same,GI50,[53],49.9 µM
same,TGI,[53],> 100 µM
same,GI50,[54],> 100 µM
same,TGI,[54],> 100 µM
same,GI50,[55],> 100 µM
same,TGI,[55],> 100 µM
same,GI50,[56],0.542 µM
same,TGI,[56],11 µM
Cc1cccc(-c2nn3c(c2-c2ccnc4ccc(C(N)=O)cc24)CCC3)n1,GI50,[4],3.64 µM
same,TGI,[4],16.8 µM
same,GI50,[7],2.02 µM
same,TGI,[7],4.6 µM
same,GI50,[11],2.17 µM
same,TGI,[11],4.48 µM
same,GI50,[12],5.1 µM
same,TGI,[12],15.6 µM
same,GI50,[17],3.05 µM
same,TGI,[17],9.5 µM
same,GI50,[18],2.55 µM
same,TGI,[18],6.56 µM
same,GI50,[20],2.15 µM
same,TGI,[20],3.96 µM
same,GI50,[21],1.74 µM
same,TGI,[21],3.13 µM
same,GI50,[23],3.78 µM
same,TGI,[23],13.2 µM
same,GI50,[24],3.86 µM
same,TGI,[24],16.6 µM
same,GI50,[57],4.81 µM
same,TGI,[57],16.6 µM
same,GI50,[26],2.44 µM
same,TGI,[26],5.39 µM
same,GI50,[28],2.41 µM
same,TGI,[28],5.7 µM
same,GI50,[30],3.93 µM
same,TGI,[30],14.3 µM
same,GI50,[31],1.8 µM
same,TGI,[31],4.1 µM
same,GI50,[34],1.74 µM
same,TGI,[34],3.65 µM
same,GI50,[36],2.47 µM
same,TGI,[36],6.04 µM
same,GI50,[37],6.22 µM
same,TGI,[37],19.7 µM
same,GI50,[38],2.37 µM
same,TGI,[38],6.01 µM
same,GI50,[39],2.37 µM
same,TGI,[39],5.92 µM
same,GI50,[40],3.64 µM
same,TGI,[40],11.8 µM
same,GI50,[41],2.65 µM
same,TGI,[41],8.58 µM
same,GI50,[42],6.9 µM
same,TGI,[42],19.7 µM
same,GI50,[43],3.92 µM
same,TGI,[43],12.8 µM
same,GI50,[44],3.9 µM
same,TGI,[44],14.1 µM
same,GI50,[47],3.17 µM
same,TGI,[47],10.4 µM
same,GI50,[48],2.08 µM
same,TGI,[48],3.57 µM
same,GI50,[51],2.77 µM
same,TGI,[51],7.47 µM
same,GI50,[58],1.95 µM
same,TGI,[58],3.83 µM
same,GI50,[52],2.97 µM
same,TGI,[52],10.6 µM
same,GI50,[53],2.52 µM
same,TGI,[53],11.3 µM
same,GI50,[54],3.65 µM
same,TGI,[54],12.3 µM
same,GI50,[55],3.34 µM
same,TGI,[55],12 µM
same,GI50,[56],5.57 µM
same,TGI,[56],16.4 µM
